Results published in patent US20250066339A1, “HETEROCYCLE-SUBSTITUTED AROMATIC COMPOUND, METHOD FOR PREPARING SAME, HERBICIDAL COMPOSITION, AND USE THEREOF” (QINGDAO KINGAGROOT CHEMICAL COMPOUND CO., LTD., priority 2022, published 2025).

Legend:
Test in all cases: Post-emergence test on weeds
Type in all cases: in vivo
Design in all cases: key: Level 10: completely dead; Level 9: growth control rate greater than or equal to 90% and less than 100%; Level 8: growth control rate greater than or equal to 80% and less than 90%; Level 7: growth control rate greater than or equal to 70% and less than 80%; Level 6: growth control rate greater than or equal to 60% and less than 70%; Level 5: growth control rate greater than or equal to 50% and less than 60%; Level 4: growth control rate greater than or equal to 40% and less than 50%; Level 3: growth control rate greater than or equal to 30% and less than 40%; Level 2: growth control rate greater than or equal to 20% and less than 30%; Level 1: growth control rate less than 20%; Level 0: no effect
Conditions in all cases: 3 weeks after application, fresh weight control rate
Setaria viridis = tested on: Setaria viridis
Source text: (§1) The activity level criteria for plant damage (i.e., growth control rate) are as follows: • Level 10: completely dead; • Level 9: growth control rate greater than or equal to 90% and less than 100%; • Level 8: growth control rate greater than or equal to 80% and less than 90%; • Level 7: growth control rate greater than or equal to 70% and less than 80%; • Level 6: growth control rate greater than or equal to 60% and less than 70%; • Level 5: growth control rate greater than or equal to 50% and less than 60%; • Level 4: growth control rate greater than or equal to 40% and less than 50%; • Level 3: growth control rate greater than or equal to 30% and less than 40%; • Level 2: growth control rate greater than or equal to 20% and less than 30%; • Level 1: growth control rate less than 20%; • Level 0: no effect.
(§2) The above growth control rates are fresh weight control rates.
(§3) Monocotyledonous and dicotyledonous weed seeds (Descurainia sophia, Capsella bursa-pastoris, Abutilon theophrasti, Galium spurium, Stellaria media, Lithospermum arvense, Rorippa indica, Alopecurus aequalis, Alopecurus japonicus, Eleusine indica, Beckmannia syzigachne, Sclerochloa dura, Erigeron canadensis, Phleum paniculatum, Veronica polita, Bromus japonicus, Aegilops tauschii, Phalaris arundinacea, Amaranthus retroflexus, Chenopodium, Commelina communis, Cichorium endivia, Convolvulus arvensis, Cirsium arvense, Solanum nigrum, Acalypha australis, Digitaria sanguinalis, Echinochloa crus-galli, Setaria viridis, Setaria pumila, Leptochloa chinensis, Monochoria vaginalis, Sagittaria trifolia, Schoenoplectiella juncoides, Cyperus rotundus, Cyperus iria, Cyperus difformis, Fimbristylis, Portulaca oleracea, Xanthium sibiricum, Ipomoea nil, Eschenbachia japonica, etc.) and major crop seeds (wheat, maize, paddy rice, soybean, cotton, oilseed rape, millet, sorghum, potato, sesame, castor plant, etc.) were placed in plastic pots filled with soil and then covered with 0.5-2 cm of soil to allow them to grow in a favorable greenhouse environment. Two weeks after sowing, the test plants were treated at the stage of 2-3 leaves. The test compounds of the present invention were individually dissolved with acetone, then added with Tween® 80, with 1.5 L/ha of methyl oleate emulsifiable concentrate as a synergist, diluted into solutions of certain concentrations using certain amount of water, and sprayed to the plants using a spray tower. After drug application, the experimental results on weeds were collected after 3 weeks of cultivation in a greenhouse. The compounds were applied at 500, 250, 125, 60, 15, and 7.5 g a.i./ha in triplicate, and the results were averaged.

Abutilon theophrasti = tested on: Abutilon theophrasti
Source text: as §1, §2, §3

Amaranthus retroflexus = tested on: Amaranthus retroflexus
Source text: as §1, §2, §3

Veronica polita = tested on: Veronica polita
Source text: as §1, §2, §3

Digitaria sanguinalis = tested on: Digitaria sanguinalis
Source text: as §1, §2, §3

Echinochloa crus-galli = tested on: Echinochloa crus-galli
Source text: as §1, §2, §3

CC(C#N)OC(=O)C1(C)CC(c2cc(-c3ncc(C(F)(F)F)cc3Cl)c(F)cc2Cl)=NO1 (stereo not drawn) [Compound 51]
10: activity level (growth control rate) Setaria viridis (Setaria viridis; 15 g a.i./ha) | activity level (growth control rate) Abutilon theophrasti (Abutilon theophrasti; 15 g a.i./ha) | activity level (growth control rate) Amaranthus retroflexus (Amaranthus retroflexus; 15 g a.i./ha) | activity level (growth control rate) Veronica polita (Veronica polita; 15 g a.i./ha) | activity level (growth control rate) Digitaria sanguinalis (Digitaria sanguinalis; 15 g a.i./ha) | activity level (growth control rate) Echinochloa crus-galli (Echinochloa crus-galli; 15 g a.i./ha)

CC1(C(=O)OCC(F)(F)F)CC(c2cc(-c3ncc(C(F)(F)F)cc3Cl)c(F)cc2Cl)=NO1 (stereo not drawn) [Compound 45]
10: activity level (growth control rate) Setaria viridis (Setaria viridis; 60 g a.i./ha) | activity level (growth control rate) Abutilon theophrasti (Abutilon theophrasti; 60 g a.i./ha) | activity level (growth control rate) Amaranthus retroflexus (Amaranthus retroflexus; 60 g a.i./ha) | activity level (growth control rate) Veronica polita (Veronica polita; 60 g a.i./ha) | activity level (growth control rate) Digitaria sanguinalis (Digitaria sanguinalis; 60 g a.i./ha) | activity level (growth control rate) Echinochloa crus-galli (Echinochloa crus-galli; 60 g a.i./ha)

Cc1ccc(/C=N/OC(=O)C2(C)CC(c3cc(-c4ncc(C(F)(F)F)cc4Cl)c(F)cc3Cl)=NO2)s1 (stereo not drawn) [Compound 73]
10: activity level (growth control rate) Setaria viridis (Setaria viridis; 60 g a.i./ha) | activity level (growth control rate) Abutilon theophrasti (Abutilon theophrasti; 60 g a.i./ha) | activity level (growth control rate) Amaranthus retroflexus (Amaranthus retroflexus; 60 g a.i./ha) | activity level (growth control rate) Veronica polita (Veronica polita; 60 g a.i./ha) | activity level (growth control rate) Digitaria sanguinalis (Digitaria sanguinalis; 60 g a.i./ha) | activity level (growth control rate) Echinochloa crus-galli (Echinochloa crus-galli; 60 g a.i./ha)

CC1(C(=O)OC2CCCC2)CC(c2cc(-c3ncc(C(F)(F)F)cc3Cl)c(F)cc2Cl)=NO1 (stereo not drawn) [Compound 43]
10: activity level (growth control rate) Setaria viridis (Setaria viridis; 15 g a.i./ha) | activity level (growth control rate) Abutilon theophrasti (Abutilon theophrasti; 15 g a.i./ha) | activity level (growth control rate) Amaranthus retroflexus (Amaranthus retroflexus; 15 g a.i./ha) | activity level (growth control rate) Veronica polita (Veronica polita; 15 g a.i./ha) | activity level (growth control rate) Digitaria sanguinalis (Digitaria sanguinalis; 15 g a.i./ha) | activity level (growth control rate) Echinochloa crus-galli (Echinochloa crus-galli; 15 g a.i./ha)

CC1(C(=O)O/N=C/c2ccco2)CC(c2cc(-c3ncc(C(F)(F)F)cc3Cl)c(F)cc2Cl)=NO1 (stereo not drawn) [Compound 72]
10: activity level (growth control rate) Setaria viridis (Setaria viridis; 60 g a.i./ha) | activity level (growth control rate) Abutilon theophrasti (Abutilon theophrasti; 60 g a.i./ha) | activity level (growth control rate) Amaranthus retroflexus (Amaranthus retroflexus; 60 g a.i./ha) | activity level (growth control rate) Veronica polita (Veronica polita; 60 g a.i./ha) | activity level (growth control rate) Digitaria sanguinalis (Digitaria sanguinalis; 60 g a.i./ha) | activity level (growth control rate) Echinochloa crus-galli (Echinochloa crus-galli; 60 g a.i./ha)

CC1(C(=O)ON=C(c2ccccc2)c2ccccc2)CC(c2cc(-c3ncc(C(F)(F)F)cc3Cl)c(F)cc2Cl)=NO1 (stereo not drawn) [Compound 71]
10: activity level (growth control rate) Setaria viridis (Setaria viridis; 60 g a.i./ha) | activity level (growth control rate) Abutilon theophrasti (Abutilon theophrasti; 60 g a.i./ha) | activity level (growth control rate) Amaranthus retroflexus (Amaranthus retroflexus; 60 g a.i./ha) | activity level (growth control rate) Veronica polita (Veronica polita; 60 g a.i./ha) | activity level (growth control rate) Digitaria sanguinalis (Digitaria sanguinalis; 60 g a.i./ha) | activity level (growth control rate) Echinochloa crus-galli (Echinochloa crus-galli; 60 g a.i./ha)

CCOC(=O)/C(C)=N/OC(=O)C1(C)CC(c2cc(-c3ncc(C(F)(F)F)cc3Cl)c(F)cc2Cl)=NO1 (stereo not drawn) [Compound 70]
10: activity level (growth control rate) Setaria viridis (Setaria viridis; 60 g a.i./ha) | activity level (growth control rate) Abutilon theophrasti (Abutilon theophrasti; 60 g a.i./ha) | activity level (growth control rate) Amaranthus retroflexus (Amaranthus retroflexus; 60 g a.i./ha) | activity level (growth control rate) Veronica polita (Veronica polita; 60 g a.i./ha) | activity level (growth control rate) Digitaria sanguinalis (Digitaria sanguinalis; 60 g a.i./ha) | activity level (growth control rate) Echinochloa crus-galli (Echinochloa crus-galli; 60 g a.i./ha)

CSCCOC(=O)C1CC(c2cc(-c3ncc(C(F)(F)F)cc3Cl)c(F)cc2Cl)=NO1 (stereo not drawn) [Compound 105]
10: activity level (growth control rate) Setaria viridis (Setaria viridis; 60 g a.i./ha) | activity level (growth control rate) Abutilon theophrasti (Abutilon theophrasti; 60 g a.i./ha) | activity level (growth control rate) Amaranthus retroflexus (Amaranthus retroflexus; 60 g a.i./ha) | activity level (growth control rate) Veronica polita (Veronica polita; 60 g a.i./ha) | activity level (growth control rate) Digitaria sanguinalis (Digitaria sanguinalis; 60 g a.i./ha) | activity level (growth control rate) Echinochloa crus-galli (Echinochloa crus-galli; 60 g a.i./ha)
